Earlier results in patent US5603954A (priority 1995, dated 1997).

What was measured:
[1] = metabolites appear after dosing in the plasma
[2] = test system: patients with chronic peripheral arterial disease

CC(=O)CCCCn1c(=O)c2c(ncn2C)n(C)c1=O [pentoxifylline, 3,7-dihydro-3,7-dimethyl-1-(5-oxohexyl)-1H-purine-2,6-dione]
first-pass effect [1]: undergoes a first-pass effect | blood flow to the affected microcirculation [2]: increases the blood flow | tissue oxygenation [2]: enhances tissue oxygenation
